Experimental data published in publication PMC6406907, “A H2AX–CARP-1 Interaction Regulates Apoptosis Signaling Following DNA Damage” (Cancers, 2019).
No end group written: not given here. HA = not defined here

How the values were obtained:
CARP-1 and γH2AX = assay: WB/IF of CARP-1 and γH2AX in HCC827; format: cell-based, human; conditions: for CARP-1 and γH2AX increase after knock-down of CARP-1: HCC827, CARP-1 knock-down; for CARP-1 levels and γH2AX: HCC827, WB / IF
Method: Logarithmically growing cells were either untreated or treated with different agents for various time periods. The cells were lysed to prepare protein extracts. IP was carried out by incubating approximately 1 mg of the protein lysate with appropriate antibodies. The immunoprecipitates were then analyzed by SDS-PAGE, followed by WB with respective, interacting protein. For Gst-pulldown, Gst-H2AX or various His-TAT-HA-tagged CARP-1 peptides were generated in Escherichia coli (E. coli) BL21 cells essentially as described by us previously. Briefly, the competent E. coli BL-21 (DE3) pLysS cells were transformed separately with various recombinant pGEX-4T-1 or pTAT-HA constructs. The transformed cells were then subjected to selection by combined presence of ampicillin and chloramphenicol; various isolates for each transformation were obtained and bacterial lysates were characterized for expression of fusion peptides. Cells from each isolate were grown in 4 mL of LB medium containing ampicillin only until the optical density (OD)600 reached 0.4–0.8. Expression of fusion peptides was induced over 2–4 h incubation periods after Isopropyl β-D-1-thiogalactopyranoside (IPTG) addition. The cells were harvested, and pellets were stored at −80 °C overnight. The cell pellets were then lysed in 100–400 μL of bacterial protein extraction reagent (BPER) buffer (Thermo Scientific, Waltham, MA, USA, Cat# 78243) containing 2 μL/mL of 10 units/μL DNAse I (Boehringer Mannheim, Fremont, CA, USA, Cat # 776–785), and supernatant checked for expression of respective fusion peptides by WB. Following confirmation of expression, 5–20 μL of lysate expressing Gst fusion protein was first incubated with 20 μL of precleared glutathione sepharose in a final volume of 100 μL at 4 °C for 2 h with constant rotation. The sepharose beads were spun at 800× g for 2 min, and the pellet was washed 2–4 times with 100–200 μL of RIPA buffer (20 mM Tris-HCl (pH 7.5), 150 mM NaCl, 1 mM Na2EDTA, 1 mM EGTA, 1% NP-40, 1% sodium deoxycholate, 2.5 mM sodium pyrophosphate, 1 mM β-glycerophosphate, 1 mM Na3VO4, 1 µg/mL leupeptin) with 0.5 M NaCl. The beads were spun again as above, and mixed with 5–20 μL of E. coli lysate expressing His-TAT-HA CARP-1 peptides. The reactions were incubated further at 4 °C for 2 h with constant rotation. The peptide-bound sepharose beads were pelleted and washed with 100–200 μL of RIPA buffer with 0.1 M NaCl for 2–4 washes. In some cases, additional washes with 0.05 M NaCl buffer were carried out. After the final wash, the sepharose–protein complexes were spun, and then re-suspended in SDS loading buffer for electrophoresis on 12–15% SDS PAGE, followed by WB with appropriate antibodies.
Cells were plated onto chamber slides one day before treatment. […]

γH2AX = assay: Confocal immunofluorescence of γH2AX / peptide, MDA-MB-468; format: cell-based, human
Method: Cells were plated onto chamber slides one day before treatment. Following treatment of cells with respective compounds, the adherent cells were fixed with 5% formaldehyde for 10 min and then washed with phosphate buffered saline (PBS). Samples were blocked (0.5% NP-40, 5% milk powder, 1% fetal bovine serum) for 30 min. After a single wash with PBS, cells were incubated with primary antibodies for 45 to 60 min. Coverslips were washed with PBS and then incubated with secondary antibodies for another 45 to 60 min. They were then washed with PBS and mounted with 0.1 μg/mL 4′,6′-diamidino-2-phenylindole (DAPI) containing mounting solution. For confocal imaging, cells were first fixed with PFA, then stained for CARP-1 by myc-tag antibodies (green), γH2AX antibodies (red), and DAPI (blue) for nuclear staining. Immunofluorescent or confocal images were taken using a Zeiss LSM 510 Meta NLO (63×).
Our next objective was to analyze the biological significance of the CARP-1–H2AX interaction in cells. […] Next, we measured activation of caspases as an apoptosis readout in cells expressing myc-His-tagged wild-type CARP-1 or CARP-1 (Δ600–650) proteins that were either untreated or treated with Adriamycin or CFM compounds as detailed in Section 2. We utilized a lower, 4–5 μM dose of Adriamycin or CFM compounds because a 10 μM Adriamycin dose caused interference in signal output/readout in this particular assay, likely due to background fluorescence that is emitted by higher dose of Adriamycin. Although Adriamycin has a maximum excitation and emission wavelength of 470 and 560 nm, respectively, we found significant fluorescence emission in cells treated with 10 μM Adriamycin at a 380-nm excitation wavelength. Moreover, since caspase activation precedes apoptotic cell death, we utilized a lower dose of Adriamycin to permit a robust measurement of optimal caspase activation in cells undergoing moderate apoptosis with lower/minimal interference by Adriamycin-induced fluorescence signals. […]

Row | Molecule | CARP-1 and γH2AX increase after knock-down of CARP-1 (CARP-1 and γH2AX) | CARP-1 levels and γH2AX (CARP-1 and γH2AX) | nuclear presence of γH2AX (γH2AX; MDA-MB-468 expressing EGFP-H2AX (1–35) vs EGFP, Adriamycin-treated) | co-localization with γH2AX (γH2AX; 6 μg/mL peptide, 72 h, confocal, insets top and middle rows of Figure 8C) | presence of γH2AX in Adriamycin-treated cells (γH2AX; MDA-MB-468 pre-incubated with 6 μg/mL peptide, 72 h, then Adriamycin, vs no peptide or scrambled peptide)
1 | COc1cccc2c1C(=O)c1c(O)c3c(c(O)c1C2=O)C[C@@](O)(C(=O)CO)C[C@@H]3O[C@H]1C[C@H](N)[C@H](O)[C@H](C)O1 [Adriamycin, doxorubicin, reference compound] | abrogated CARP-1 and γH2AX increase | robust increase in CARP-1 levels and γH2AX |  |  | 
2 | O=C1N(Cc2ccccc2Cl)c2ccccc2C12NN=C(c1cccc(Cl)c1)S2 (stereo not shown) [CFM-4.16] | abrogated CARP-1 and γH2AX increase | robust increase in CARP-1 levels and γH2AX |  |  | 
3 | EGFP-H2AX (1–35): EGFP-tagged fusion protein stably expressed in MDA-MB-468 and HeLa sublines (MSGRGKTGGKARAKAKSRSSRAGLQFPVGRVHRLL; also: EGFP fusion, end not given here; UniProt P16104 1-35, looked up, fragment) |  |  | increased nuclear presence of γH2AX |  | 
4 | His-TAT-HA-CARP-1 (636–650): His-TAT-HA-tagged CARP-1 (636–650) peptide, >95% purity, commercially synthesized ({His-TAT-HA}-PKTMKVNDLRKELES; reading uncertain; UniProt Q8IX12 636-650, looked up, fragment) |  |  |  | co-localization | increased presence of γH2AX
